We go through five molecules from US5312818A, “Method of protecting against and/or treating ulcerative gastrointestinal conditions using a thromboxane A2 receptor antagonist and combination useful in preventing and/or treating ulcers and/or inflammation” (E. R. Squibb & Sons, Inc., priority 1992, dated 1994).

Read-outs that look alike come from different tables or passages of the source.

For data set [1], the system named is aspirin-induced gastric ulcers. Kind of data set: aspirin-induced gastric ulcers in rats. The following applies: for inhibition of gastric erosions: aspirin treated rats; for % Ulcer Inhibition: Table 1. In kind it is in vivo, male Sprague-Dawley rats. The procedure: (§1) The following experiment was carried out to evaluate thromboxane receptor involvement in other models of gastro-intestinal ulcer.
[…] In each of these experiments, a dose of SQ 33,961 or vehicle (9.5% ethanol in 0.02% Na2 CO3, pH 9; 5 mL/kg) was administered by intraperitoneal injection 60 minutes before administration of aspirin, aspirin vehicle (1% methyl cellulose; 5 mL/kg, p.o.), indomethacin, or indomethacin vehicle (3.2% Na2 CO3, pH 8; 5 mL/kg, s.c.) in fasted male Sprague-Dawley rats (174-352 g). Three hours later, the rats were sacrificed by CO2 asphyxiation, the stomachs excised and opened, the lumen rinsed with saline, and the number and areas of gastric lesions measured.
*Aspirin Dose = 200 mg/kg, p.o. 1 hour after dosing with Test Agent. Rats
were sacrificed and ulcers measured 3 hours after aspirin administration.

The test system of data set [2] is indomethacin-induced gastric ulcers. In kind it is in vivo, male Sprague-Dawley rats. The settings on record: for inhibition of gastric erosions: indomethacin treated rats; for % Ulcer Inhibition: Table 1. As to the method:
as §1
In two studies, SQ 33,961 (1 and 10 mg/kg, i.p.) was evaluated in models of gastric ulcer induced by indomethacin (20 mg/kg, s.c.) and aspirin (200 mg/kg, p.o.). In each of these experiments, a dose of SQ 33,961 or vehicle (9.5% ethanol in 0.02% Na2 CO3, pH 9; 5 mL/kg) was administered by intraperitoneal injection 60 minutes before administration of aspirin, aspirin vehicle (1% methyl cellulose; 5 mL/kg, p.o.), indomethacin, or indomethacin vehicle (3.2% Na2 CO3, pH 8; 5 mL/kg, s.c.) in fasted male Sprague-Dawley rats (174-352 g). Three hours later, the rats were sacrificed by CO2 asphyxiation, the stomachs excised and opened, the lumen rinsed with saline, and the number and areas of gastric lesions measured.

The subject of the next data set is carrageenan paw edema. Kind of data set: carrageenan paw edema model in rats. In kind it is in vivo. The following applies: for effect on development of paw edema (in words): 10 mg/kg i.p.; for Paw Volume 3 hours after Carrageenan injection: SQ 33,961 10 mg/kg i.p. and/or indomethacin 10 mg/kg i.p., 7-8 rats. As to the method: Paw volumes were measured before and hourly after carageenan injection in the 4 groups (N=7-8 each).

Data set [3] has as its system taurocholic acid-induced ulcers. Kind of data set: taurocholic acid-induced gastric ulcers in rats. In kind it is in vivo. The following applies: i.p. The procedure:
The following experiment was conducted to determine the cytoprotective potential of the thromboxane receptor antagonist SQ 33,961 on taurocholic acid-induced ulcers in rats.
Fasted rats were treated with either vehicle (9.5% ethanol in 0.02% Na2 CO3, pH 9; 5 mL/kg, i.p.) or SQ 33,961 (0.01 to 10 mg/kg, i.p.) 60 minutes before administration of either vehicle (0.2N HCl, pH 2; 1.0 mL, p.o.) or taurocholic acid (100 mM, pH 2; 1.0 mL, p.o.). One hour later, rats were sacrificed and gastric lesion number and areas measured. There were no gastric erosions in the groups of rats challenged with the taurocholic acid vehicle.

Turning to `CC(=O)Oc1ccccc1C(=O)O` [Aspirin, reference compound], the “Average Gastric Lesion Area” value in data set [1] (Aspirin (200 mg/kg, p.o.) + Vehicle (CONTROL), 11 rats, text calls it lesion area in mm^2) is given as 10.5 ± 2.01. Moreover, in data set [1] (aspirin 200 mg/kg, p.o. versus indomethacin 20 mg/kg, s.c.), the “severity of gastric lesions (in words)” value is on record as “more severe gastric lesions than indomethacin”. Also, the “Average total lesion area” value in data set [1] (aspirin 200 mg/kg, p.o., three hours, N=11) came out at 10.5±2.1 mm^2.
On to `O=C(O)Cc1ccc(CCNS(=O)(=O)c2ccc(Cl)cc2)cc1` [BM 13,505, 4-[2-(4-chlorobenzenesulfonamido)ethyl]phenylacetic acid, reference compound], for which the “Average Gastric Lesion Area” value in data set [1] (20.00 mg/kg, i.p., N=9, Table 3, aspirin 200 mg/kg, p.o., vehicle 11.18 ± 2.35) is listed as 4.68 ± 1.63 mm^2. Further, the “effect on aspirin-induced gastric erosions (in words)” value in data set [1] (aspirin 200 mg/kg, p.o.) was “significantly diminished aspirin-induced gastric erosions”.
For `O=C(O)c1ccc(OCCn2ccnc2)cc1` [Dazoxiben, reference compound], the “Average Gastric Lesion Area” value in data set [1] (50.0 mg/kg, i.p., N=6, Table 3, aspirin 200 mg/kg, p.o.) came to 25.40 ± 8.50 mm^2. Besides, the “effect on aspirin-induced gastric erosions (in words)” value in data set [1] (aspirin 200 mg/kg, p.o.) is given as “did not diminish aspirin-induced gastric erosions”.
Regarding `COc1ccc2c(c1)c(CC(=O)O)c(C)n2C(=O)c1ccc(Cl)cc1` [Indomethacin, reference compound], the “Gastric lesion area (mm^2)” value in data set [2] (Indomethacin (20 mg/kg, s.c.) + Vehicle (CONTROL), 16 rats, text calls it lesion area in mm^2) was determined as 2.90 ± 0.81. In data set [2] (indomethacin 20 mg/kg, s.c., three hours, N=16), the “Average total lesion area” value came out at 2.9±0.8 mm^2. Moreover, in the data set on carrageenan paw edema, the “effect on development of paw edema (in words)” value is “significantly inhibited edema formation” and the “Paw Volume 3 hours after Carrageenan injection” value is 2.2 ± 0.08 mL.
As for `O=C(O)CCc1ccccc1C[C@@H]1[C@H](c2nc(C(=O)NCCCCC3CCCCC3)co2)[C@H]2CC[C@@H]1O2` [SQ 33,961, [1S-(1α,2α,3α,4α)]-2-[[3-[4-[[(4-cyclohexylbutyl)amino]carbonyl]-2-oxazolyl]-7-oxabicyclo[2.2.1]hept-2-yl]methyl]benzenepropanoic acid], the “inhibition of gastric erosions” value is listed as “about 70%” in data set [2] (1 mg/kg, i.p.); roughly 95% in data set [2] (10 mg/kg, i.p.); “about 70%” in data set [1] (1 mg/kg, i.p.); roughly 95% in data set [1] (10 mg/kg, i.p.). The “Gastric lesion area (mm^2)” value in data set [2] (Indomethacin (20 mg/kg, s.c.) + 1 mg/kg, i.p., 15 rats) was 0.94 ± 0.41; in data set [2] (Indomethacin (20 mg/kg, s.c.) + 10 mg/kg, i.p., 15 rats), 0.08 ± 0.07. For the same molecule, the “% Ulcer Inhibition” value was 68% in data set [2] (Indomethacin (20 mg/kg, s.c.) + 1 mg/kg, i.p.); 97% in data set [2] (Indomethacin (20 mg/kg, s.c.) + 10 mg/kg, i.p.); 73% in data set [1] (Aspirin (200 mg/kg, p.o.) + 1 mg/kg, i.p.); 94% in data set [1] (Aspirin (200 mg/kg, p.o.) + 10 mg/kg, i.p.). In addition, the “effect on development of paw edema (in words)” value in the data set with carrageenan paw edema is listed as “no significant effect on the development of paw edema”. Further, the “Paw Volume 3 hours after Carrageenan injection” value with carrageenan paw edema turned out to be 2.6 ± 0.11 mL. Besides, the “effect on antiphlogistic activity of indomethacin (in words)” value in the data set on carrageenan paw edema (SQ 33,961 10 mg/kg i.p., indomethacin 10 mg/kg i.p.) is “this antiphlogistic activity was not inhibited”. Besides, the “reduction of gastric lesion area (in words)” value in data set [3] (0.01 to 10 mg/kg) is “dose-related reduction of gastric lesion area”. In addition, the ED50 in data set [3] (Rattus norvegicus, ip, 1 h, 60 minutes before taurocholic acid (100 mM, pH 2; 1.0 mL, p.o.), measured one hour later, read-out: ID50, reduction of gastric lesion area) amounted to 0.012 mg/kg. Further, the “Average Gastric Lesion Area” value in data set [1] (0.1 mg/kg, i.p., N=6, Table 3, aspirin 200 mg/kg, p.o.) is on record as 6.21 ± 1.66 mm^2; in data set [1] (1.0 mg/kg, i.p., N=9, Table 3, aspirin 200 mg/kg, p.o.) it was 2.86 ± 1.02 mm^2; in data set [1] (10.0 mg/kg, i.p., N=9, Table 3, aspirin 200 mg/kg, p.o.) it was 0.62 ± 0.34 mm^2; in data set [1] (Aspirin (200 mg/kg, p.o.) + 1 mg/kg, i.p., 9 rats), 2.86 ± 1.02; in data set [1] (Aspirin (200 mg/kg, p.o.) + 10 mg/kg, i.p., 9 rats) it was 0.62 ± 0.34. The “effect on aspirin-induced gastric erosions (in words)” value in data set [1] (aspirin 200 mg/kg, p.o.) was “dose related reductions in gastric erosions”.
